Source: patent US12552825B2 (Zikani Therapeutics, Inc., priority 2019, dated 2026)
In brackets after ≈: the same amount, converted by molar mass.

Key:
Format in all cases: cell-based
K. pneumoniae MP-648 = assay: MIC determination by CLSI broth dilution, K. pneumoniae MP-648; conditions: Klebsiella pneumoniae, MP648, CLSI broth dilution; strain MP-648
E. coli MP-4 = assay: MIC determination by CLSI broth dilution, E. coli MP-4; conditions: Escherichia coli, MP4, CLSI broth dilution; strain MP-4
P. aeruginosa MP-3 = assay: MIC determination by CLSI broth dilution, P. aeruginosa MP-3; conditions: Pseudomonas aeruginosa, MP3, strain MP-3
S. aureus MP-12 = assay: microbe, parasite or virus in culture; conditions: Staphylococcus aureus, MP12, read-out: MIC S. aureus MP-12
A. baumannii MP-15 = assay: MIC determination by CLSI broth dilution, A. baumannii MP-15; conditions: Acinetobacter baumannii, MP15, strain MP-15, read-out: MIC A. baumanii MP-15

Structure (SMILES)	MIC (K. pneumoniae MP-648) [µg/mL]	MIC (E. coli MP-4) [µg/mL]	MIC (P. aeruginosa MP-3) [µg/mL]	MIC (S. aureus MP-12) [µg/mL]	MIC (A. baumannii MP-15) [µg/mL]
CCN1C[C@H](C)C[C@@](C)(OC)[C@H](O[C@@H]2O[C@H](C)C[C@H](N(C)C)[C@H]2O)[C@@H](C)C(=O)C(C)(C)C(=O)OC[C@@H]1CN1CCN(C)CC1 [Compound 157, (3S,6R,8R,9R,10R)-9-(((2S,3R,4S,6R)-4-(dimethylamino)-3-hydroxy-6-methyltetrahydro-2H-pyran-2-yl)oxy)-4-ethyl-8-methoxy-6,8,10,12,12-pentamethyl-3-((4-methylpiperazin-1-yl)methyl)-1-oxa-4-azacyclotridecane-11,13-dione]	4 to 32 (≈ 6.38 to 51 µM)	< 4	> 32	4 to 32 (≈ 6.38 to 51 µM)	> 32
CCN1CCN(C[C@H]2COC(=O)C(C)(C)C(=O)[C@H](C)[C@@H](O[C@@H]3O[C@H](C)C[C@H](N(C)C)[C@H]3O)[C@](C)(OC)C[C@@H](C)CN2CC)CC1 [Compound 158, (3S,6R,8R,9R,10R)-9-(((2S,3R,4S,6R)-4-(Dimethylamino)-3-hydroxy-6-methyltetrahydro-2H-pyran-2-yl)oxy)-4-ethyl-3-((4-ethylpiperazin-1-yl)methyl)-8-methoxy-6,8,10,12,12-pentamethyl-1-oxa-4-azacyclotridecane-11,13-dione]	4 to 32 (≈ 6.24 to 49.9 µM)	< 4	> 32	4 to 32 (≈ 6.24 to 49.9 µM)	> 32
CCN1C[C@H](C)C[C@@](C)(OC)[C@H](O[C@@H]2O[C@H](C)C[C@H](N(C)C)[C@H]2O)[C@@H](C)C(=O)C(C)(C)C(=O)OC[C@@H]1CN1CCN(C(C)C)CC1 [Compound 159]	4 to 32 (≈ 6.11 to 48.9 µM)	< 4	> 32	4 to 32 (≈ 6.11 to 48.9 µM)	> 32
CCN1C[C@H](C)C[C@@](C)(OC)[C@H](O[C@@H]2O[C@H](C)C[C@H](N(C)C)[C@H]2O)[C@@H](C)C(=O)C(C)(C)C(=O)OC[C@H]1CC1CCN(CCO)CC1 [Compound 169, (3R,6R,8R,9R,10R)-9-(((2S,3R,4S,6R)-4-(Dimethylamino)-3-hydroxy-6-methyltetrahydro-2H-pyran-2-yl)oxy)-4-ethyl-3-((1-(2-hydroxyethyl)piperidin-4-yl)methyl)-8-methoxy-6,8,10,12,12-pentamethyl-1-oxa-4-azacyclotridecane-11,13-dione]	4 to 32 (≈ 6.1 to 48.8 µM)	< 4	> 32	4 to 32 (≈ 6.1 to 48.8 µM)	> 32
CCN1C[C@H](C)C[C@@](C)(OC)[C@H](O[C@@H]2O[C@H](C)C[C@H](N(C)C)[C@H]2O)[C@@H](C)C(=O)C(C)(C)C(=O)OC[C@H]1CC1CCN(CCOC)CC1 [Compound 170]	< 4	< 4	> 32	4 to 32 (≈ 5.97 to 47.8 µM)	> 32
CO[C@]1(C)C[C@@H](C)CN(C)[C@H](CC2CCN(CCO)CC2)COC(=O)C(C)(C)C(=O)[C@H](C)[C@H]1O[C@@H]1O[C@H](C)C[C@H](N(C)C)[C@H]1O [Compound 178]	< 4	< 4	> 32	> 32	> 32
CCN1C[C@H](C)C[C@@](C)(OC)[C@H](O[C@@H]2O[C@H](C)C[C@H](N(C)C)[C@H]2O)[C@@H](C)C(=O)C(C)(C)C(=O)OC[C@@H]1CCCN1CCN(C)CC1 [Compound 180]	> 32	< 4	> 32	> 32	> 32
CCN1C[C@H](C)C[C@@](C)(OC)[C@H](O[C@@H]2O[C@H](C)C[C@H](N(C)C)[C@H]2O)[C@@H](C)C(=O)C(C)(C)C(=O)OC[C@@H]1CCCN1CCN(c2ccncc2)CC1 [Compound 181]	> 32	< 4	> 32	> 32	> 32
CCN1C[C@H](C)C[C@@](C)(OC)[C@H](O[C@@H]2O[C@H](C)C[C@H](N(C)C)[C@H]2O)[C@@H](C)C(=O)C(C)(C)C(=O)OC[C@H]1C=C1CCN(C2Cc3ccccc3C2)CC1 [Compound 191]	< 4	< 4	> 32	< 4	4 to 32 (≈ 5.51 to 44.1 µM)
CCN1C[C@H](C)C[C@@](C)(OC)[C@H](O[C@@H]2O[C@H](C)C[C@H](N(C)C)[C@H]2O)[C@@H](C)C(=O)C(C)(C)C(=O)OC[C@H]1C=C1CCN(Cc2ccccc2)CC1 [Compound 192]	4 to 32 (≈ 5.71 to 45.7 µM)	< 4	> 32	< 4	4 to 32 (≈ 5.71 to 45.7 µM)
CCN1C[C@H](C)C[C@@](C)(OC)[C@H](O[C@@H]2O[C@H](C)C[C@H](N(C)C)[C@H]2O)[C@@H](C)C(=O)C(C)(C)C(=O)OC[C@H]1[C@H](O)CCN(C)CC(F)(F)F [Compound 193, (3S,6R,8R,9R,10R)-9-(((2S,3R,4S,6R)-4-(dimethylamino)-3-hydroxy-6-methyltetrahydro-2H-pyran-2-yl)oxy)-4-ethyl-3-((R)-1-hydroxy-3-(methyl(2,2,2-trifluoroethyl)amino)propyl)-8-methoxy-6,8,10,12,12-pentamethyl-1-oxa-4-azacyclotridecane-11,13-dione]	> 32	4 to 32 (≈ 5.85 to 46.8 µM)	> 32	> 32	> 32
CCN1C[C@H](C)C[C@@](C)(OC)[C@H](O[C@@H]2O[C@H](C)C[C@H](N(C)C)[C@H]2O)[C@@H](C)C(=O)C(C)(C)C(=O)OC[C@H]1[C@H](O)CCN(C)Cc1ccccc1 [Compound 194]	< 4	< 4	> 32	4 to 32 (≈ 5.78 to 46.2 µM)	4 to 32 (≈ 5.78 to 46.2 µM)
CO[C@]1(C)C[C@@H](C)CN(C)[C@H](/C=C/CN(C)Cc2ccc(F)cc2)COC(=O)C(C)(C)C(=O)[C@H](C)[C@H]1O[C@@H]1O[C@H](C)C[C@H](N(C)C)[C@H]1O [Compound 195]	4 to 32 (≈ 5.9 to 47.2 µM)	< 4	> 32	4 to 32 (≈ 5.9 to 47.2 µM)	4 to 32 (≈ 5.9 to 47.2 µM)
CCN(C)[C@H]1C[C@H](C[C@]2(C)COC(=O)C(C)(C)C(=O)[C@H](C)[C@@H](O[C@@H]3O[C@H](C)C[C@H](N(C)C)[C@H]3O)[C@](C)(OC)C[C@@H](C)CN2C)C1 [Compound 196]	> 32	< 4	> 32	4 to 32 (≈ 6.25 to 50 µM)	> 32
CO[C@]1(C)C[C@@H](C)CN(C)[C@](C)(C[C@H]2C[C@H](N(C)CC3CC3)C2)COC(=O)C(C)(C)C(=O)[C@H](C)[C@H]1O[C@@H]1O[C@H](C)C[C@H](N(C)C)[C@H]1O [Compound 197]	4 to 32 (≈ 6.01 to 48.1 µM)	< 4	> 32	4 to 32 (≈ 6.01 to 48.1 µM)	> 32
CO[C@]1(C)C[C@@H](C)CN(C)[C@](C)(C[C@H]2C[C@H](N(C)C(C)C)C2)COC(=O)C(C)(C)C(=O)[C@H](C)[C@H]1O[C@@H]1O[C@H](C)C[C@H](N(C)C)[C@H]1O [Compound 198]	> 32	4 to 32 (≈ 6.12 to 48.9 µM)	> 32	4 to 32 (≈ 6.12 to 48.9 µM)	> 32
CN[C@H]1C[C@H](C[C@]2(C)COC(=O)C(C)(C)C(=O)[C@H](C)[C@@H](O[C@@H]3O[C@H](C)C[C@H](N(C)C)[C@H]3O)[C@](C)(OC)C[C@@H](C)CN2C)C1 [Compound 199]	> 32	4 to 32 (≈ 6.54 to 52.3 µM)	> 32	4 to 32 (≈ 6.54 to 52.3 µM)	> 32
